We go through 3 compounds from patent publication US11331367B1, “Compounds and methods for inhibiting protozoan parasites” (University of South Florida, priority 2018, dated 2022).

In general, inhibition refers to the relative decrease from the control value, in per cent.

Non-standard residues stand in square brackets, D forms with d. Residues, ends and D or L forms follow the SMILES beside them. *: point of attachment. NMeI = CC[C@H](C)[C@H](NC)C(=O)O; dNMeF = CN[C@H](Cc1ccccc1)C(=O)O; X1 = C(=C/c1c[nH]c2ccccc12)/N*; NMeV = CN[C@H](C(=O)O)C(C)C; NMeA = CN[C@@H](C)C(=O)O

The assay has as its system Plasmodium falciparum liver-stage parasites. As to the kind of experiment: microbe, parasite or virus in culture. As to conditions: for inhibition of P. falciparum liver-stage development (in words): in vitro liver model, drug treatment at 10 μM. It counts as cell-based. The method, then: Bioactivity of friomaramide was evaluated for inhibition of Plasmodium falciparum liver-stage parasites and primary human hepatocyte (PHH) toxicity using an in vitro liver model. In brief, cryopreserved PHHs were seeded at 1.8×10^4 cells per well in a 384-well microplate. Freshly isolated P. falciparum sporozoites were inoculated at 2.0×10^4 per well with subsequent drug treatment at 10 μM. Media was changed daily with fresh addition of drug for 3 days until experiment fixation on day 6.

As for `C[C@H]1[C@@H](O)O[C@@H]2O[C@@]3(C)CC[C@H]4[C@H](C)CC[C@@H]1[C@@]24OO3` [DHA], the “inhibition of P. falciparum liver-stage development (in words)” value is listed as “does not inhibit”.

Consider `CC[C@H](C)[C@@H](C(=O)N/C=C\c1c[nH]c2ccccc12)N(C)C(=O)[C@H]([C@@H](C)CC)N(C)C(=O)[C@H](C)N(C)C(=O)[C@H](C(C)C)N(C)C(=O)[C@@H](Cc1ccccc1)N(C)C(C)=O` [friomaramide] (Ac-[dNMeF][NMeV][NMeA][NMeI][NMeI]-X1), for which the “inhibition of P. falciparum liver-stage development (in words)” value was “block sporozoite invasion and subsequent liver-stage parasite development”. Regarding `COc1cc(NC(C)CCCN)c2ncccc2c1` (stereo not drawn) [primaquine], for the setting “Plasmodium falciparum, Hepatocyte, read-out: inhibition of P. falciparum liver-stage growth”, the inhibition at 10 µM was more than 90%.
